Measured values: the supplement of paper PMC10307832

Columns and labels:
Experiment in all cases: relative viability (nuclei count vs DMSO), 5 days (fraction); higher = more cells survive
AZD6482 + Palbociclib = compound: Cc1cc([C@@H](C)Nc2ccccc2C(=O)O)c2nc(N3CCOCC3)cc(=O)n2c1 [AZD6482] + CC(=O)c1c(C)c2cnc(Nc3ccc(N4CCNCC4)cn3)nc2n(C2CCCC2)c1=O [Palbociclib] (partner 0.5 µM)
Outline: (§1)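 Lung cancer cell lines were pin-tool dosed in 1536-well plates on the day after seeding, with either a lone drug or a fixed anchor-drug dose plus five library-drug doses (not always all listed) in √10 steps. Nuclei were counted on 4× images after 5 days. Relative viability is the ratio of treated-well to vehicle-well nuclei counts, with each value a median of duplicate plates.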

AZD6482 + AZD7762 = compound: Cc1cc([C@@H](C)Nc2ccccc2C(=O)O)c2nc(N3CCOCC3)cc(=O)n2c1 [AZD6482] + NC(=O)Nc1cc(-c2cccc(F)c2)sc1C(=O)N[C@H]1CCCNC1 [AZD7762] (partner 0.2 µM)
Outline: as §1

[1] = compound: COc1cc2nc(N3CCCN(C)CC3)nc(NC3CCN(Cc4ccccc4)CC3)c2cc1OC + Cc1nc(NC(=O)N2CCC[C@H]2C(N)=O)sc1-c1ccnc(C(C)(C)C(F)(F)F)c1 [Alpelisib] (partner 2 µM)
Outline: as §1

AZD6482 + Bortezomib = compound: Cc1cc([C@@H](C)Nc2ccccc2C(=O)O)c2nc(N3CCOCC3)cc(=O)n2c1 [AZD6482] + CC(C)C[C@H](NC(=O)[C@H](Cc1ccccc1)NC(=O)c1cnccn1)B(O)O [Bortezomib] (partner 0.002 µM)
Outline: as §1

Row | Cell Line | relative viability (AZD6482 + Palbociclib; first compound 0.08 µM) | relative viability (AZD6482 + Palbociclib; first compound 0.253 µM) | relative viability (AZD6482 + Palbociclib; first compound 0.8 µM) | relative viability (AZD6482 + Palbociclib; first compound 2.53 µM) | relative viability (AZD6482 + Palbociclib; first compound 8 µM) | relative viability (AZD6482 + AZD7762; first compound 0.08 µM) | relative viability (AZD6482 + AZD7762; first compound 0.253 µM) | relative viability (AZD6482 + AZD7762; first compound 0.8 µM) | relative viability (AZD6482 + AZD7762; first compound 2.53 µM) | relative viability (AZD6482 + AZD7762; first compound 8 µM) | relative viability ([1]; first compound 0.2 µM) | relative viability ([1]; first compound 0.6325 µM) | relative viability ([1]; first compound 6.325 µM) | relative viability ([1]; first compound 2 µM) | relative viability (AZD6482 + Bortezomib; first compound 0.08 µM) | relative viability (AZD6482 + Bortezomib; first compound 0.253 µM) | relative viability (AZD6482 + Bortezomib; first compound 0.8 µM) | relative viability (AZD6482 + Bortezomib; first compound 8 µM) | relative viability (AZD6482 + Bortezomib; first compound 2.53 µM)
1 | NCI-H1944 | 0.293 | 0.313 | 0.295 | 0.285 | 0.211 | 0.57 | 0.522 | 0.499 | 0.381 | 0.417 | 0.822 | 0.909 | 0.912 |  |  |  |  |  | 
2 | NCI-H1793 | 0.243 | 0.215 | 0.271 | 0.215 | 0.225 | 0.377 | 0.361 | 0.315 | 0.218 | 0.249 | 0.677 | 0.722 | 0.785 | 0.812 |  |  |  |  | 
3 | NCI-H520 | 0.123 | 0.157 | 0.179 | 0.146 | 0.15 |  |  |  |  |  | 0.947 | 0.98 | 0.452 | 0.867 | 0.489 | 0.223 | 0.481 | 0.306 | 
4 | A549 |  |  |  |  |  |  |  |  |  |  | 0.694 | 0.8 | 0.722 | 0.761 |  |  |  |  | 
5 | NCI-H358 | 0.149 | 0.121 | 0.134 | 0.127 | 0.115 | 0.545 | 0.487 | 0.549 | 0.302 | 0.439 | 0.935 | 0.888 | 0.533 | 1.01 |  |  |  |  | 
6 | NCI-H1563 |  |  |  |  |  |  |  |  |  |  | 0.954 | 0.904 | 0.73 | 0.834 | 0.75 | 0.828 | 0.818 | 0.68 | 0.673
7 | NCI-H1395 | 0.49 | 0.486 | 0.482 | 0.401 | 0.456 | 0.393 | 0.393 | 0.44 | 0.405 | 0.411 | 1.1 | 1.04 | 0.589 | 1.07 |  |  |  |  | 
8 | NCI-H2009 | 0.187 | 0.176 | 0.172 | 0.124 | 0.119 |  |  |  |  |  | 1.24 | 1.07 | 1.07 | 1.18 | 0.985 | 1.04 | 1.04 | 0.783 | 0.601
9 | NCI-H522 | 1.07 | 0.933 | 0.691 | 0.805 | 0.825 | 0.764 | 0.73 | 0.803 | 0.762 | 0.664 |  |  |  |  |  |  |  |  | 
10 | IA-LM |  |  |  |  |  |  |  |  |  |  | 0.688 | 0.823 | 1.01 | 1.02 | 1.11 | 0.876 | 0.953 | 0.496 | 0.416
11 | SK-LU-1 |  | 0.346 | 0.376 | 0.315 | 0.387 |  |  |  |  |  | 1.21 | 0.977 | 0.577 | 1.04 | 0.776 | 0.642 | 1.16 | 0.46 | 0.589
12 | NCI-H1703 |  |  |  |  |  |  |  | 0.333 | 0.131 | 0.149 | 0.313 | 0.265 | 0.353 | 0.402 | 0.377 | 0.301 | 0.331 | 0.238 | 0.191
13 | SW 900 | 0.474 | 0.434 | 0.348 | 0.355 | 0.389 | 0.402 | 0.512 | 0.445 | 0.497 | 0.501 |  |  |  |  |  |  |  |  | 
